Data as given in article PMC6934184, “Selective DNA-PKcs inhibition extends the therapeutic index of localized radiotherapy and chemotherapy” (The Journal of Clinical Investigation, 2019).

Target: T1, BMPR2 (Homo sapiens, UniProt Q13873)
T1 construct: purchased Thermo Fisher Scientific (Life Technologies) SelectScreen
Experiment: SelectScreen LanthaScreen
Format: binding
Settings: 1 µM
How it was run: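 SelectScreen broad panel; activity (Z'LYTE, Adapta) plus binding formats. ATP: Km app for CSF1R Z'LYTE; 10 for CAMK1 Adapta. Readout = % per kinase.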

T1 sequence (Q13873 27-1038): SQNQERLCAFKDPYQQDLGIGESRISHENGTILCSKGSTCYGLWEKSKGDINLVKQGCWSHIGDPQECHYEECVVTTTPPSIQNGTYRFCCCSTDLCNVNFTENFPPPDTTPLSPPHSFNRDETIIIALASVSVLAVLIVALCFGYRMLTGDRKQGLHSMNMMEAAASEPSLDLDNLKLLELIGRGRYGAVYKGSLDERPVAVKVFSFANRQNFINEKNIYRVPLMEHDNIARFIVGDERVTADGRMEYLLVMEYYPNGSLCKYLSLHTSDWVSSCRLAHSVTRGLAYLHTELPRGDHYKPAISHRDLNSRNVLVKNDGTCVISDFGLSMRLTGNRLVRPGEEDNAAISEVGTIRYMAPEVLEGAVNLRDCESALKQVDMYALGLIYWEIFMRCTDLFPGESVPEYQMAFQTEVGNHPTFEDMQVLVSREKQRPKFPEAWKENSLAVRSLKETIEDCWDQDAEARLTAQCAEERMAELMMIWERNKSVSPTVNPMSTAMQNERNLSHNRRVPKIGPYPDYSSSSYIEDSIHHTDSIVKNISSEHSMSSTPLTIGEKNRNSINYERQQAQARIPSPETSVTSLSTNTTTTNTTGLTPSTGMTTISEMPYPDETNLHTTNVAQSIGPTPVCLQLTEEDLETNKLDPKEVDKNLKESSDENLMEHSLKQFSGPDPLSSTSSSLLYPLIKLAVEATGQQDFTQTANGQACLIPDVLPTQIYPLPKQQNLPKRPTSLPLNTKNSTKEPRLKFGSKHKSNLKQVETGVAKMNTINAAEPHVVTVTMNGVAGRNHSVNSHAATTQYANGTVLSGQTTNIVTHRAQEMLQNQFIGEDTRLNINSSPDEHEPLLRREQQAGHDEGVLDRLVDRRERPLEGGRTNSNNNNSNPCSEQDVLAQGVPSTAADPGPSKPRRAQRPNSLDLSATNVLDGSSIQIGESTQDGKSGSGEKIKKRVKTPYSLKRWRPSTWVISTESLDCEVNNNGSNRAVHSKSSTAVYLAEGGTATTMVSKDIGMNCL

With `CN(C(=O)CN1CCOCC1)c1ccc2sc3c(-c4cccc5c(=O)cc(N6CC7CCC(C6)O7)oc45)cccc3c2c1` [NU5455] the “% displacement” value was -2.5%.
